Data on 2 compounds can be found in US8383679B2, “Crystal form of calcium 3-acetylaminopropane-1-sulfonate” (Merck Patent Gesellschaft mit beschränkter Haftung, priority 2008, dated 2013).

A short description of data set [1]: Suspension-conversion experiments. The class given is physicochemical. As to conditions: suspension of crystals. An excerpt: Suitable suspension media are solvents in which the active compound is soluble, where the active compound is employed in a weight ratio in relation to the respective solvent in the suspension in which the solubility limit of the active compound in the solvent is exceeded, so that the active compound is predominantly in the form of a solid in the suspension. Suitable suspension media are, for example, water, methanol and/or tetrahydrofuran (THE), where water is particularly preferred.

The nature of data set [2]: Enthalpy of solution, 2225 Thermometrics Solution calorimeter. The class given is physicochemical.

In the case of `CC(=O)NCCCS(=O)(=O)O` [form I, calcium 3-acetylaminopropane-1-sulfonate], the “conversion of crystal form in suspension” value in data set [1] is “rearrangement to crystal form II”. In addition, the enthalpy of solution in data set [2] (in water at 25° C.) was -23.1 ± 0.2 J/g.
With `CC(=O)NCCCS(=O)(=O)O` [form II, calcium 3-acetylaminopropane-1-sulfonate], the “thermodynamic stability (free Gibbs enthalpy) relative to the other crystal form” value in data set [2] (concluded from enthalpies of solution) is on record as “thermodynamically more stable than form I”. Besides, in data set [2] (in water at 25° C.), the “difference in enthalpy of solution between form II and form I” value was determined as 6.9 ± 0.4 J/g; the enthalpy of solution worked out at 16.2 ± 0.2 J/g.
